Measured values from paper PMC7181660, “A novel specific PERK activator reduces toxicity and extends survival in Huntington's disease models” (Scientific Reports, 2020).

Columns and labels:
Assay in all cases: biochemical
Type in all cases: biochemical
panel of 391 kinases [1] = biological target: panel of 391 kinases (Homo sapiens, UniProt Q9NQU5); conditions: PAK6, MK-28 1 µM, ATP 1 µM
panel of 391 kinases [2] = biological target: panel of 391 kinases (Homo sapiens, UniProt P05129); conditions: PKCg, MK-28 1 µM, ATP 1 µM
panel of 391 kinases [3] = biological target: panel of 391 kinases (Homo sapiens, UniProt Q9H2G2); conditions: SLK/STK2, MK-28 1 µM, ATP 1 µM
panel of 391 kinases [4] = biological target: panel of 391 kinases (Homo sapiens, UniProt Q7KZI7); conditions: MARK2/PAR-1Ba, MK-28 1 µM, ATP 1 µM
panel of 391 kinases [5] = biological target: panel of 391 kinases (Homo sapiens, UniProt P06239); conditions: LCK, MK-28 1 µM, ATP 1 µM
panel of 391 kinases [6] = biological target: panel of 391 kinases (Homo sapiens, UniProt Q9UL54); conditions: TAOK2/TAO1, MK-28 1 µM, ATP 1 µM
panel of 391 kinases [7] = biological target: panel of 391 kinases (Homo sapiens, UniProt Q02156); conditions: PKCepsilon, MK-28 1 µM, ATP 1 µM
panel of 391 kinases [8] = biological target: panel of 391 kinases (Homo sapiens, UniProt Q13237); conditions: PKG2/PRKG2, MK-28 1 µM, ATP 1 µM
panel of 391 kinases [9] = biological target: panel of 391 kinases (Homo sapiens, UniProt P51451); conditions: BLK, MK-28 1 µM, ATP 1 µM
panel of 391 kinases [10] = biological target: panel of 391 kinases (Homo sapiens, UniProt P53778); conditions: P38g, MK-28 1 µM, ATP 1 µM
panel of 391 kinases [11] = biological target: panel of 391 kinases (Homo sapiens, UniProt Q8NE63); conditions: HIPK4, MK-28 1 µM, ATP 1 µM
panel of 391 kinases [12] = biological target: panel of 391 kinases (Homo sapiens, UniProt O96017); conditions: CHK2, MK-28 1 µM, ATP 1 µM
panel of 391 kinases [13] = biological target: panel of 391 kinases (Homo sapiens, UniProt Q9H3Y6); conditions: SRMS, MK-28 1 µM, ATP 1 µM
panel of 391 kinases [14] = biological target: panel of 391 kinases (Homo sapiens, UniProt Q14012); conditions: CAMK1a, MK-28 1 µM, ATP 1 µM
panel of 391 kinases [15] = biological target: panel of 391 kinases (Homo sapiens, UniProt P04626); conditions: ERBB2/HER2, MK-28 1 µM, ATP 1 µM
panel of 391 kinases [16] = biological target: panel of 391 kinases (Homo sapiens, UniProt P31749); conditions: AKT1, MK-28 1 µM, ATP 1 µM
panel of 391 kinases [17] = biological target: panel of 391 kinases (Homo sapiens, UniProt Q9UF33); conditions: EPHA6, MK-28 1 µM, ATP 1 µM
panel of 391 kinases [18] = biological target: panel of 391 kinases (Homo sapiens, UniProt Q15139); conditions: PKCmu/PRKD1, MK-28 1 µM, ATP 1 µM
panel of 391 kinases [19] = biological target: panel of 391 kinases (Homo sapiens, UniProt Q8TDC3); conditions: BRSK1, MK-28 1 µM, ATP 1 µM
panel of 391 kinases [20] = biological target: panel of 391 kinases (Homo sapiens, UniProt Q9H1R3); conditions: MLCK2/MYLK2, MK-28 1 µM, ATP 1 µM
panel of 391 kinases [21] = biological target: panel of 391 kinases (Homo sapiens, UniProt O75460); conditions: ERN1/IRE1, MK-28 1 µM, ATP 1 µM
panel of 391 kinases [22] = biological target: panel of 391 kinases (Homo sapiens, UniProt Q9H4A3); conditions: WNK1, MK-28 1 µM, ATP 1 µM
panel of 391 kinases [23] = biological target: panel of 391 kinases (Homo sapiens, UniProt Q04771); conditions: ALK2/ACVR1, MK-28 1 µM, ATP 1 µM
panel of 391 kinases [24] = biological target: panel of 391 kinases (Homo sapiens, UniProt Q12866); conditions: c-MER, MK-28 1 µM, ATP 1 µM
panel of 391 kinases [25] = biological target: panel of 391 kinases (Homo sapiens, UniProt P50613); conditions: CDK7/cyclin H, MK-28 1 µM, ATP 1 µM
panel of 391 kinases [26] = biological target: panel of 391 kinases (Homo sapiens, UniProt Q9BQI3); conditions: kinase EIF2AK1, compound at 1 µM, single dose in duplicates, 1 µM ATP
[27] = read-out: % Enzyme Activity (relative to DMSO controls)

CN(/N=C\c1ccc(O)c(O)c1)c1nc(-c2ccccc2)cc(-c2ccccc2)n1 [MK-28]
% Enzyme Activity (relative to DMSO controls) (panel of 391 kinases [1]): 97.64%
remaining activity at 1 µM (panel of 391 kinases [1]; [27]): 98%
% Enzyme Activity (relative to DMSO controls) (panel of 391 kinases [2]): 101.88%
remaining activity at 1 µM (panel of 391 kinases [2]; [27]): 104%
% Enzyme Activity (relative to DMSO controls) (panel of 391 kinases [3]): 100.63%
remaining activity at 1 µM (panel of 391 kinases [3]; [27]): 102%
% Enzyme Activity (relative to DMSO controls) (panel of 391 kinases [4]): 98.73%
remaining activity at 1 µM (panel of 391 kinases [4]; [27]): 106%
% Enzyme Activity (relative to DMSO controls) (panel of 391 kinases [5]): 116.76%
remaining activity at 1 µM (panel of 391 kinases [5]; [27]): 117%
% Enzyme Activity (relative to DMSO controls) (panel of 391 kinases [6]): 107.98%
remaining activity at 1 µM (panel of 391 kinases [6]; [27]): 111%
% Enzyme Activity (relative to DMSO controls) (panel of 391 kinases [7]): 100.42%
remaining activity at 1 µM (panel of 391 kinases [7]; [27]): 102%
% Enzyme Activity (relative to DMSO controls) (panel of 391 kinases [8]): 85.92%
remaining activity at 1 µM (panel of 391 kinases [8]; [27]): 86%
% Enzyme Activity (relative to DMSO controls) (panel of 391 kinases [9]): 82.35%
remaining activity at 1 µM (panel of 391 kinases [9]; [27]): 85.3%
% Enzyme Activity (relative to DMSO controls) (panel of 391 kinases [10]): 100.96%
remaining activity at 1 µM (panel of 391 kinases [10]; [27]): 107%
% Enzyme Activity (relative to DMSO controls) (panel of 391 kinases [11]): 97.91%
remaining activity at 1 µM (panel of 391 kinases [11]; [27]): 98.4%
% Enzyme Activity (relative to DMSO controls) (panel of 391 kinases [12]): 98.51%
remaining activity at 1 µM (panel of 391 kinases [12]; [27]): 101%
% Enzyme Activity (relative to DMSO controls) (panel of 391 kinases [13]): 102.96%
remaining activity at 1 µM (panel of 391 kinases [13]; [27]): 104%
% Enzyme Activity (relative to DMSO controls) (panel of 391 kinases [14]): 77.40%
remaining activity at 1 µM (panel of 391 kinases [14]; [27]): 77.7%
% Enzyme Activity (relative to DMSO controls) (panel of 391 kinases [15]): 98.41%
remaining activity at 1 µM (panel of 391 kinases [15]; [27]): 99.3%
% Enzyme Activity (relative to DMSO controls) (panel of 391 kinases [16]): 95.66%
remaining activity at 1 µM (panel of 391 kinases [16]; [27]): 96.7%
% Enzyme Activity (relative to DMSO controls) (panel of 391 kinases [17]): 92.67%
remaining activity at 1 µM (panel of 391 kinases [17]; [27]): 94%
% Enzyme Activity (relative to DMSO controls) (panel of 391 kinases [18]): 94.26%
remaining activity at 1 µM (panel of 391 kinases [18]; [27]): 95.3%
% Enzyme Activity (relative to DMSO controls) (panel of 391 kinases [19]): 90.51%
remaining activity at 1 µM (panel of 391 kinases [19]; [27]): 92.8%
% Enzyme Activity (relative to DMSO controls) (panel of 391 kinases [20]): 95.96%
remaining activity at 1 µM (panel of 391 kinases [20]; [27]): 96.4%
% Enzyme Activity (relative to DMSO controls) (panel of 391 kinases [21]): 104.22%
remaining activity at 1 µM (panel of 391 kinases [21]; [27]): 105%
% Enzyme Activity (relative to DMSO controls) (panel of 391 kinases [22]): 103.91%
remaining activity at 1 µM (panel of 391 kinases [22]; [27]): 104%
% Enzyme Activity (relative to DMSO controls) (panel of 391 kinases [23]): 102.33%
remaining activity at 1 µM (panel of 391 kinases [23]; [27]): 108%
% Enzyme Activity (relative to DMSO controls) (panel of 391 kinases [24]): 97.57%
remaining activity at 1 µM (panel of 391 kinases [24]; [27]): 98.6%
% Enzyme Activity (relative to DMSO controls) (panel of 391 kinases [25]): 106.19%
remaining activity at 1 µM (panel of 391 kinases [25]; [27]): 108%
% Enzyme Activity (relative to DMSO controls) (panel of 391 kinases [26]): 96.86%
remaining activity at 1 µM (panel of 391 kinases [26]; [27]): 100%
